These results are taken from PMC7130106 (Drug Design, Development and Therapy, 2020).

The conditions of series [1]: co-administered with tenofovir, efavirenz, ritonavir and rifampin; cited from earlier work.
For series [2], the system named is intracellular amastigote stages of L. donovani. The experiment in a line: Synergy evaluation, combination index method with amphotericin B. The class given is cell-based, Leishmania donovani.
Series [3] concerns various clinical isolates of L. donovani. As to conditions: read-out: lowest IC50, L. donovani isolates obtained from Ethiopia; ref 38 (Patterson et al); cited from earlier work.
Series [4] has as its system L. donovani promastigotes. As to conditions: read-out: IC50 on L. donovani promastigotes; ref 38 (Patterson et al); cited from earlier work.
The conditions of series [5]: cited from earlier work.
For series [6], the system named is L. mexicana. Particulars: read-out: IC50 on L. mexicana; ref 28 (Berry et al); cited from earlier work.
Series [7] has as its system Leishmania donovani promastigotes. It counts as cell-based.

“Also recorded” adds a separate entry of the source.

One may read the IC50 as the concentration that gives 50% inhibition. For `C[C@]1(COc2ccc(N3CCC(Oc4ccc(OC(F)(F)F)cc4)CC3)cc2)Cn2cc([N+](=O)[O-])nc2O1` [MMV688262, delamanid], the “interaction with anti-retroviral and anti-TB drugs” value in series [1] is on record as “no clinically relevant interaction”. Moreover, the “synergistic activity with amphotericin B” value in series [2] is “synergistic effect; also recorded: synergistic activity”. Besides, the IC50 in series [3] was 0.0865 µM; in series [4], 0.015 µM; in series [6], 1.78 µM. Also, in series [5], the renal excretion is under 5%. In series [5] (in words), the volume of distribution entry is “high volume of distribution”.

As for `CC(C)(C)C(O)C(Oc1ccc(-c2ccccc2)cc1)n1cncn1` (stereo not drawn) [MMV688942], the “inhibition of promastigotes in primary screening” value in series [7] (1 μM, 72 h, average of two independent experiments in triplicate) is “considerable activity”. In series [7] (promastigotes), the “dose-dependent inhibitory effect in subsequent dose titration assay” value is recorded as “failed to demonstrate a dose-dependent inhibitory effect”.
